One data set has as its system SU-DHL-6. The experiment in a line: MTS cell proliferation assay, SU-DHL-6. Particulars: Homo sapiens; SU-DHL-6, 72 hr. It counts as cell-based. As for the experimental part: (§1) Cell proliferation was measured using the CellTiter 96 Aqueous Non-Radioactive Cell Proliferation Assay (Promega). The CellTiter 96® AQueous Assay is composed of solutions of a tetrazolium compound [3-(4,5-dimethylthiazol-2-yl)-5-(3-carboxymethoxyphenyl)-2-(4-sulfophenyl)-2H-tetrazolium, inner salt; MTS] and an electron coupling reagent (phenazine methosulfate) PMS. MTS is bioreduced by cells into a formazan product that is soluble in tissue culture medium. The absorbance of the formazan product at 490 nm can be measured directly from assay plates without additional processing. The quantity of formazan product as measured by the amount of 490 nm absorbance is directly proportional to the number of living cells in culture. Cells were seeded into 96-well or 384-well clear plates in a volume of 200 μL (96-well) or 50 μL (384-well) at optimized densities ranging from 1,000 to 40,000 cells per well for 96-well plates or 1,200 to 25,000 cells per well for 384-well plates depending on cell-line. After 4-6 hr recovery, serially diluted compounds in DMSO were added to the cells using (0.1% v/v final DMSO concentration). Cells were then grown at 37° C. in a humidified incubator with 5% CO2 for 72 hr. A 20:1 [3-(4,5-dimethylthiazol-2-yl)-5-(3-carboxymethoxyphenyl)-2-(4-sulfophenyl)-2H-tetrazolium](MTS):phenazine methosulfate (PMS) solution in DPBS was made immediately before use, added to each well, and cells were incubated for 1.5 hr at 37° C. The absorbance at 490 nm was then measured using a platereader. Absorbance values were normalized as percent of control (cells incubated in the presence of 0.1% v/v DMSO). Sigmoidal dose-response curves were plotted using log(inhibitor) vs. response—Variable slope (four parameters) model with a top value constrained to 100% (GraphPad Prism version 6.00 for Windows, GraphPad Software, La Jolla California USA). […] Curves for compounds that reached a plateau were matched exactly to the measurement points. […]
Background: Formazan colour is commonly taken as a measure of viable cells.

In another data set the test system is A20. Kind of data set: MTS cell proliferation assay, A20. It is filed as cell-based, murine. Particulars: Mus musculus; A20, 72 hr. The method, then: (§2) Cell proliferation was measured using the CellTiter 96 Aqueous Non-Radioactive Cell Proliferation Assay (Promega). The CellTiter 96® AQueous Assay is composed of solutions of a tetrazolium compound [3-(4,5-dimethylthiazol-2-yl)-5-(3-carboxymethoxyphenyl)-2-(4-sulfophenyl)-2H-tetrazolium, inner salt; MTS] and an electron coupling reagent (phenazine methosulfate) PMS. MTS is bioreduced by cells into a formazan product that is soluble in tissue culture medium. The absorbance of the formazan product at 490 nm can be measured directly from assay plates without additional processing. The quantity of formazan product as measured by the amount of 490 nm absorbance is directly proportional to the number of living cells in culture. Cells were seeded into 96-well or 384-well clear plates in a volume of 200 μL (96-well) or 50 μL (384-well) at optimized densities ranging from 1,000 to 40,000 cells per well for 96-well plates or 1,200 to 25,000 cells per well for 384-well plates depending on cell-line. After 4-6 hr recovery, serially diluted compounds in DMSO were added to the cells using (0.1% v/v final DMSO concentration). Cells were then grown at 37° C. in a humidified incubator with 5% CO2 for 72 hr. A 20:1 [3-(4,5-dimethylthiazol-2-yl)-5-(3-carboxymethoxyphenyl)-2-(4-sulfophenyl)-2H-tetrazolium](MTS):phenazine methosulfate (PMS) solution in DPBS was made immediately before use, added to each well, and cells were incubated for 1.5 hr at 37° C. The absorbance at 490 nm was then measured using a platereader. Absorbance values were normalized as percent of control (cells incubated in the presence of 0.1% v/v DMSO). Sigmoidal dose-response curves were plotted using log(inhibitor) vs. response—Variable slope (four parameters) model with a top value constrained to 100% (GraphPad Prism version 6.00 for Windows, GraphPad Software, La Jolla California USA). […] Curves for compounds that reached a plateau were matched exactly to the measurement points. […] To determine potential of compounds of the invention to affect viability of hematological cancers, cell lines representing various tumor types were selected and tested. Human cell lines tested were: MOLM-13 (acute myeloid leukemia (AML)), MV4-11 (AML), U-2932 (ABC-diffuse large B cell lymphoma), U-937 (histiocytic lymphoma), U-266 (multiple myeloma), RPMI-8226 (multiple myeloma), CMK (megakaryoblastic cell line), SU-DHL-4 (GCB-diffuse large B cell lymphoma), KG1 (AML), Mec-1 (chronic B-cell leukemia), MOLM-16 (AML), Jeko (B-cell lymphoma), WSU-DLCL2 (B-cell lymphoma), JJN3 (plasma cell leukemia), SU-DHL-6 (GCB-diffuse large B cell lymphoma), and Z-138 (mantle cell lymphoma). In addition, two murine cell lines were tested: A20 […].

A further data set has as its system Z-138. Kind of data set: MTS cell proliferation assay, Z-138. It counts as cell-based. The settings on record: Homo sapiens; Z-138, 72 hr. As for the experimental part:
as §1

A further data set deals with C1498. The experiment in a line: MTS cell proliferation assay, C1498. It is filed as cell-based, murine. The settings on record: Mus musculus; for EC50: C1498, 72 hr, read-out: MTS proliferation assay. The method, then: Cell proliferation was measured using the CellTiter 96 Aqueous Non-Radioactive Cell Proliferation Assay (Promega). […] MTS is bioreduced by cells into a formazan product that is soluble in tissue culture medium. The absorbance of the formazan product at 490 nm can be measured directly from assay plates without additional processing. The quantity of formazan product as measured by the amount of 490 nm absorbance is directly proportional to the number of living cells in culture. Cells were seeded into 96-well or 384-well clear plates in a volume of 200 μL (96-well) or 50 μL (384-well) at optimized densities ranging from 1,000 to 40,000 cells per well for 96-well plates or 1,200 to 25,000 cells per well for 384-well plates depending on cell-line. After 4-6 hr recovery, serially diluted compounds in DMSO were added to the cells using (0.1% v/v final DMSO concentration). Cells were then grown at 37° C. in a humidified incubator with 5% CO2 for 72 hr. A 20:1 [3-(4,5-dimethylthiazol-2-yl)-5-(3-carboxymethoxyphenyl)-2-(4-sulfophenyl)-2H-tetrazolium](MTS):phenazine methosulfate (PMS) solution in DPBS was made immediately before use, added to each well, and cells were incubated for 1.5 hr at 37° C. The absorbance at 490 nm was then measured using a platereader. Absorbance values were normalized as percent of control (cells incubated in the presence of 0.1% v/v DMSO). Sigmoidal dose-response curves were plotted using log(inhibitor) vs. response—Variable slope (four parameters) model with a top value constrained to 100% (GraphPad Prism version 6.00 for Windows, GraphPad Software, La Jolla California USA). […] To determine potential of compounds of the invention to affect viability of hematological cancers, cell lines representing various tumor types were selected and tested. […] In addition, two murine cell lines were tested: A20 […].

In a further data set the test system is MOLM-16. The experiment in a line: MTS cell proliferation assay, MOLM-16. It is filed as cell-based. The settings on record: Homo sapiens, MOLM16; MOLM-16, 72 hr. The method, then: as §1
The next data set deals with KG1. The experiment in a line: MTS cell proliferation assay, KG1. It counts as cell-based. The settings on record: Homo sapiens, KG-1; KG1, 72 hr. The method, then:
as §1

A further data set concerns RPMI-8226. Kind of data set: MTS cell proliferation assay, RPMI-8226. It counts as cell-based. The settings on record: Homo sapiens; RPMI-8226, 72 hr. The method, then: as §2
Data set [1] is described as follows: Oral pharmacokinetics in mice. It counts as in vivo. Particulars: for Tmax / bioavailability: mouse, in vivo, oral; for bioavailability: read-out: oral bioavailability % F.
Data set [2] relates to panel of 270 different human kinases. The experiment in a line: Kinase selectivity panel (Upstate/Millipore). It is filed as biochemical. Particulars: 10 μM, panel of 270 kinases. The method, then:
The selectivity of Compound 1 and Compound 2 was evaluated in a panel of 270 different human kinases offered by Upstate (now Millipore).

The values below come from US20240207258A1, “HETEROCYCLIC PDK1 INHIBITORS FOR USE TO TREAT CANCER” (Viracta Therapeutics, Inc., priority 2015, published 2024).

Regarding `C[C@H](NC(=O)c1nc(C#N)cnc1NCc1ccc(-c2cnc3[nH]nc(N)c3n2)cc1)c1ccc(F)c(F)c1` [Compound 1, 3-[4-(3-Amino-1H-pyrazolo[3,4-b]pyrazin-5-yl)-benzylamino]-6-cyano-pyrazine-2-carboxylic acid [1-(3,4-difluoro-phenyl)-ethyl]-amide], the EC50 with SU-DHL-6 was 572 nM; in the data set on A20, 156 nM; in the data set with Z-138, 718 nM; in the data set on C1498, 53 nM; in the data set on MOLM-16, 248 nM; in the data set with KG1, 175 nM. Moreover, the EC50 with RPMI-8226 was found to be 174 nM. For the same compound, the “half-life” value in data set [1] is given as “long half-life”. In addition, the Tmax in [1] was 4 to 8 h. Moreover, the bioavailability in [1] was over 40%. Besides, the “number of kinases with inhibition greater than or equal to 90% (including PDK1)” value in data set [2] worked out at 18.
As to `CNc1n[nH]c2ncc(-c3ccc(CNc4ncc(C#N)nc4C(=O)N[C@@H](C)c4ccc(F)c(F)c4)cc3)cc12` [Compound 2, 6-Cyano-3-[4-(3-methylamino-1H-pyrazolo[3,4-b]pyridin-5-yl)-benzylamino]-pyrazine-2-carboxylic acid [1-(3,4-difluoro-phenyl)-ethyl]-amide], the EC50 in the data set with SU-DHL-6 worked out at 476 nM; in the data set on A20, 114 nM; in the data set on Z-138, 684 nM; with C1498 it was 45 nM; with MOLM-16, 227 nM; with KG1, 195 nM. In the data set on RPMI-8226, this compound showed an EC50 of 163 nM. The inhibition at 0.2 µM with C1498 (C1498, 200 nM, read-out: growth inhibition) came to 80%. Further, the “half-life” value in data set [1] was “long half-life”. The Tmax in data set [1] was in the range of 4 to 8 h. Besides, the bioavailability in [1] was over 40%. Moreover, the “number of kinases with inhibition greater than or equal to 90% (including PDK1)” value in data set [2] was determined as 20.

As usually defined, the Tmax is the time from dosing to the highest level. What is called bioavailability is dose-corrected exposure relative to a reference, in per cent. For orientation: inhibition means the change of the read-out against control, counted positive when it falls.
